{"source": "patent US20250000888A1", "about": "“METHODS OF TREATING MYELODYSPLASTIC SYNDROMES WITH DECITABINE AND CEDAZURIDINE” (priority 2021, published 2025)", "key": {"MDS patients [1]": {"test_system": "MDS patients", "conditions": "cited from earlier work; for Median survival: previous reports in clinical trials; for Overall response rate: reported in clinical studies"}, "MDS patients [2]": {"test_system": "MDS patients", "conditions": "intention-to-treat; 15 mg/m^2 IV over 3 hours, every 8 hours for 3 days; BSC 14.9; cited from earlier work"}, "[3]": {"test_system": "LINE-1 (long interspersed nuclear element-1) methylation", "test": "Phase 3 trial pharmacodynamics: DNA demethylation by % LINE-1 methylation analysis", "assay_type": "in vivo, human"}, "[4]": {"test_system": "intermediate or high-risk MDS patients age 60 or older", "conditions": "low-dose decitabine IV; BSC 8.5; cited from earlier work"}, "[5]": {"test": "Phase 3 randomized crossover trial: decitabine total exposure over 5 days (AUC) and plasma pharmacokinetics", "assay_type": "in vivo, human", "conditions": "for AUC(0-t): human, plasma, intravenous, 20 mg/m^2/d, read-out: 5-Day Decitabine AUC0-24 LSM", "source_text": "A total of 118 patients was planned for this analysis to provide 90% power at the statistical significance level of 0.05, presuming the true ratio of geometric means is 1.0, the intrapatient coefficient of variation (CV) on an unlogged scale is 0.55, and the 90% confidence interval (CI) equivalence limits for the ratio of geometric means are 0.8 and 1.25. Assuming that 10% of patients would not be evaluable, 132 patients were planned to be randomized.\nAt least one of either day 1 or 5 decitabine AUC0-24 measurement during the IV decitabine cycle was required to be evaluable. […] Descriptive statistics were calculated for pharmacokinetic values.\nEffects of the sequence and cycle were evaluated."}, "[6]": {"test_system": "patients with MDS or CMML", "experimental": "Each treatment was given for the first 5 consecutive days of a 28-day cycle. […] Consistent with standard clinical care with parenteral DNMTi, cycles could be delayed or doses reduced if judged necessary for hematologic or nonhematologic recovery.\nEfficacy and safety endpoints were calculated using all data through final cutoff."}, "patients with MDS": {"test_system": "patients with MDS", "conditions": "BSC arm 12; cited from earlier work"}}, "note": "Read-outs that look alike come from different tables or passages of the source.", "data": [{"smiles": "Nc1ncn([C@H]2C[C@H](O)[C@@H](CO)O2)c(=O)n1", "note": "[IV decitabine, 5-aza-2′-deoxycytidine]", "values": [{"measurement": "Median survival", "setting": "MDS patients [1]", "value": "14.0-19.4 months"}, {"measurement": "Overall response rate", "setting": "MDS patients [1]", "value": 32, "unit": "%"}, {"measurement": "Median survival", "setting": "MDS patients [2]", "value": 14.0, "unit": "months"}, {"measurement": "Max. % LINE-1 Demethylation LSM", "setting": "[3]; Cycle 1", "value": 14.019, "unit": "%"}, {"measurement": "Max. % LINE-1 Demethylation LSM", "setting": "[3]; Cycle 2", "value": 11.968, "unit": "%"}, {"measurement": "Overall survival (OS)", "setting": "[4]", "value": 10.1, "unit": "months"}, {"measurement": "Peak concentrations, IV vs oral administration", "setting": "[5]; FIG. 2A", "value": "higher after IV vs oral"}, {"measurement": "Time at which peak decitabine plasma concentrations were detected", "setting": "[5]; after oral and IV therapy, except day 5 IV", "value": 1, "unit": "h"}, {"measurement": "Time at which peak decitabine plasma concentrations were attained", "setting": "[5]; day 5 after IV treatment", "value": 30, "unit": "min"}, {"measurement": "AUC(0-t)", "setting": "[5]; Primary endpoint, paired, cycles 1 and 2", "value": 865, "unit": "ng·h/mL"}, {"measurement": "AUC(0-t)", "setting": "[5]; Sensitivity, paired, includes data excluded from primary endpoint", "value": 870, "unit": "ng·h/mL"}, {"measurement": "AUC(0-t)", "setting": "[5]; Sensitivity, unpaired", "value": 866, "unit": "ng·h/mL"}, {"measurement": "Time plasma concentrations remained above the lower limit of quantification", "setting": "[5]; in most patients", "value": "up to 4 hours"}, {"measurement": "Grade ≥3 TEAE Anemia, %", "setting": "[6]; Cycles 1 and 2", "value": "(32) %"}, {"measurement": "Grade ≥3 TEAE Febrile neutropenia, %", "setting": "[6]; Cycles 1 and 2", "value": "(7) %"}, {"measurement": "Grade ≥3 TEAE Leukopenia, %", "setting": "[6]; Cycles 1 and 2", "value": "(14) %"}, {"measurement": "Grade ≥3 TEAE Neutropenia, %", "setting": "[6]; Cycles 1 and 2", "value": "(29) %"}, {"measurement": "Grade ≥3 TEAE Pneumonia, %", "setting": "[6]; Cycles 1 and 2", "value": "(5) %"}, {"measurement": "Grade ≥3 TEAE Thrombocytopenia, %", "setting": "[6]; Cycles 1 and 2", "value": "(32) %"}, {"measurement": "≥1 Grade ≥3 TEAE regardless of relation to treatment, %", "setting": "[6]; Cycles 1 and 2", "value": "(67) %"}, {"measurement": "≥1 TEAE regardless of relation to treatment, %", "setting": "[6]; Cycles 1 and 2", "value": 96, "unit": "%"}, {"measurement": "TEAE Anemia, %", "setting": "[6]; Cycles 1 and 2, any grade", "value": "(36) %"}, {"measurement": "TEAE Constipation, %", "setting": "[6]; Cycles 1 and 2, any grade", "value": "(20) %"}, {"measurement": "TEAE Decreased appetite, %", "setting": "[6]; Cycles 1 and 2, any grade", "value": "(5) %"}, {"measurement": "TEAE Diarrhea, %", "setting": "[6]; Cycles 1 and 2, any grade", "value": "(11) %"}, {"measurement": "TEAE Dyspnea, %", "setting": "[6]; Cycles 1 and 2, any grade", "value": "(10) %"}, {"measurement": "TEAE Fatigue, %", "setting": "[6]; Cycles 1 and 2, any grade", "value": "(17) %"}, {"measurement": "TEAE Febrile neutropenia, %", "setting": "[6]; Cycles 1 and 2, any grade", "value": "(7) %"}, {"measurement": "TEAE Headache, %", "setting": "[6]; Cycles 1 and 2, any grade", "value": "(14) %"}, {"measurement": "TEAE Nausea, %", "setting": "[6]; Cycles 1 and 2, any grade", "value": "(17) %"}, {"measurement": "TEAE Neutropenia, %", "setting": "[6]; Cycles 1 and 2, any grade", "value": "(34) %"}, {"measurement": "TEAE Thrombocytopenia, %", "setting": "[6]; Cycles 1 and 2, any grade", "value": "(39) %"}, {"measurement": "≥1 TEAE regardless of relation to treatment, %", "setting": "[6]; Cycles 1 and 2, listed as IV Decitabine", "value": "(96) %"}, {"measurement": "Treatment-related serious AE rate, recalculated", "setting": "[6]; first 2 cycles, one AE reassigned to IV decitabine given in cycle 1", "value": 4, "unit": "%"}, {"measurement": "Patients reporting ≥1 treatment-related serious AE", "setting": "[6]; first 2 treatment cycles", "value": 3, "unit": "%"}, {"measurement": "Treatment discontinuation due to an AE", "setting": "[6]; first 2 treatment cycles", "value": 1, "unit": "patient"}, {"measurement": "Deaths deemed related to study medication", "setting": "[6]; of 11 fatal serious AEs, oral: sepsis and pneumonia, IV: septic shock, pneumonia", "value": "three"}]}, {"smiles": "Nc1ncn([C@@H]2O[C@H](CO)[C@@H](O)[C@H]2O)c(=O)n1", "note": "[azacitidine, 5-azacytidine]", "values": [{"measurement": "Median survival", "setting": "MDS patients [1]", "value": "12.0-24.5 months"}, {"measurement": "Overall response rate", "setting": "MDS patients [1]", "value": "44%-60%"}, {"measurement": "Median time to leukemic transformation or death", "setting": "patients with MDS", "value": 21, "unit": "months"}]}]}
